{"source": "patent US9757350B2", "about": "“Small molecule inhibitors of replication protein A that also act synergistically with cisplatin” (Indiana University Research and Technology Corp., priority 2010, dated 2017)", "system": "A2780 cells", "experiment": "CCK-8 cell viability assay, A2780", "assay_type": "cell-based", "details": "24 hours of treatment", "method": "Referring now to FIG. 13A. Cell Viability and Apoptosis of Ovarian and p53 null Lung Cancer Cell Lines. A) Ovarian cancer cell line A2780 and the p53 null lung cancer cell line, H1299, were treated with log dosing of MCI13E and viability analyzed via CCK-8 metabolic assay as described in Methods. Data is presented as cell survival which was determined as a percent of the untreated control cells and represents the average and standard deviation of triplicate experiments Referring now to FIG. 13B.\nOvarian cancer cell line, A2780, cells are difficult to use for crystal violet analysis due to their enhanced sensitivity to treatment. Therefore, the cell counting kit-8 (CCK) was used to determine the viability of A2780 cells in addition to the p53 null lung cancer cell line H1299, following a 24 hour treatment with log dosing of SMI. Cells were plated (1×10^5) in 24-well dishes and treated with inhibitor after 24 hours. After treatment media was aspirated and 1 ml of DMEM was added in addition to 100 μL of CCK-8 solution. Absorbance at 450 nm was measured over 4 hours in a SpectraMax M5 plate reader and values are presented as the percent untreated control at the two hour time point for three separate plate replicates each containing three assays per plate.", "data": [{"molecule": "CC1(C)C2CCC1(C)C(OC(=O)CBr)C2", "note": "(racemic) [MCI13E, (+/−)-Isobornyl bromoacetate]", "values": [{"measurement": "IC50", "result": "~1000", "unit": "nM"}]}]}
